Data as given in PMC3526713 (Journal of natural products, 2006).

Assays:
Electric eel AChE = Electric eel AChE (Electrophorus electricus, UniProt O42275)
[1] = molecular target: horse serum butyrylcholinesterase (BChE) (Equus caballus, UniProt P81908)
Sequence of horse serum butyrylcholinesterase (BChE) (P81908 whole entry): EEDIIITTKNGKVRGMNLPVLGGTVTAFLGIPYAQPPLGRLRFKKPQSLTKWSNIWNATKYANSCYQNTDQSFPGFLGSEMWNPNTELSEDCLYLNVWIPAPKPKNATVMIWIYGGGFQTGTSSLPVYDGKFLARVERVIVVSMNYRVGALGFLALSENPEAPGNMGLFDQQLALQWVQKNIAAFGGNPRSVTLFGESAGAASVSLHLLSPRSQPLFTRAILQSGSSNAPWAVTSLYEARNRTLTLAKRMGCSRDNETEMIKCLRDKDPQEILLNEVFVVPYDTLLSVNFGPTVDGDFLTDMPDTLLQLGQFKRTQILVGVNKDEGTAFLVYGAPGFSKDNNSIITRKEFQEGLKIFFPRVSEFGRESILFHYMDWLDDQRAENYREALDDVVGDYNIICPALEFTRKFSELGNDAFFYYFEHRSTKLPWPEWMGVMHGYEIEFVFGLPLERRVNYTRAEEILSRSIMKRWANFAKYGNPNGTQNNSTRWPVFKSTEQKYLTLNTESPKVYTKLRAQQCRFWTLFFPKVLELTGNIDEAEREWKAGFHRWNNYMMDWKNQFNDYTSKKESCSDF

Sequence of Electric eel AChE (O42275 24-633): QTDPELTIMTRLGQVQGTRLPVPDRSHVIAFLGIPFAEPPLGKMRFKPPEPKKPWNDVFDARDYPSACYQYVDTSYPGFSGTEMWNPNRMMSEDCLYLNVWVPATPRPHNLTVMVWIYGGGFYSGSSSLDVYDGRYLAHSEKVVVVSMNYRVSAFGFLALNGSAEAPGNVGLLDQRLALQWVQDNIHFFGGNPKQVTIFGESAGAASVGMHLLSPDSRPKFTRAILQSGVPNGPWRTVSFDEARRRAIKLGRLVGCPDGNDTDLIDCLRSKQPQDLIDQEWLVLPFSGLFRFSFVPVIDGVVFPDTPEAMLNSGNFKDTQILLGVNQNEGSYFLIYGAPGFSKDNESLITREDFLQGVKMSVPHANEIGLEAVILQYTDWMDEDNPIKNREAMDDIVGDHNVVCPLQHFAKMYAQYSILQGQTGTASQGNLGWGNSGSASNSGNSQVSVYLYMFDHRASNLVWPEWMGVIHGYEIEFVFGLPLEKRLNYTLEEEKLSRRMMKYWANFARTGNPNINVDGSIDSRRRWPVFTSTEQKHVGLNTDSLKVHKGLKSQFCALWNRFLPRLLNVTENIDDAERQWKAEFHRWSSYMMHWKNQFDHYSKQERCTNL

SMILES	Effect on AChE (Electric eel AChE)	Effect on BChE [1]
COc1c(O)cc2c3c1-c1ccccc1C[C@H]3NCC2 [Compound 2, 1-methoxy-5,6,6a,7-tetrahydro-4H-dibenzo[de,g]quinolin-2-ol (6aR)]	effects on neither AChE nor BChE	effects on neither AChE nor BChE
COc1ccc2c(=O)oc3c(OC)cc(CCN(C)C)c4c(=O)oc1c2c34 [Compound 1, 1-(2-dimethylaminoethyl)-3,8-dimethoxychromeno[5,4,3-cde]chromene-5,10-dione]		no effect on BChE
